Measured values published in patent US9539229B2, “Intestinal tract-protecting agent containing hydroxylated fatty acid” (KYOTO UNIVERSITY, priority 2013, dated 2017).

Legend:
[1] = system: tight junction-related factors in large intestinal tissues; assay: Gene expression of tight junction-related factors in large intestinal tissues of DSS-induced enteritis model mouse (real-time PCR); type: in vivo, BALB/c mice; conditions: oral 100 nmol/day, FIG. 10
Method: (§1) BALB/c mice (♀, 6-week-old) were purchased from Charles River Japan (Kanagawa, Japan), and all experiment plans were carried out in accordance with Hiroshima University, Animal Experiment Rule (No. C10-17). Acute colitis was induced by allowing free intake of 3.5% (w/v) DSS (molecular weight 36000-50000; MP Biomedicals, Aurora, Ohio, USA) for 5 days. To evaluate the effect of HYA and HYB on large intestine, 100 μL of a suspension of HYA or HYB (each 100 nmol) was orally administered to the mice. This administration was performed every day for total 10 days, for 5 days before DSS administration and 5 days after the start of the administration. The symptoms of colitis were evaluated every day based on a decrease in body weight, condition of feces and bleeding from the anus. After administration of DSS for 5 days, the mouse was sacrificed, and the length of the large intestine was measured. Thereafter, RNA was extracted from the large intestine tissue by using RNeasy Mini Kit (Qiagen, Maryland, Md., USA). Paraffin section (7 μm) of the large intestine tissue was produced, stained with hematoxylin-eosin, and histochemically evaluated. The extracted RNA was reverse-transcribed using a high-capacity cDNA reverse transcription kit (Life Technologies) to give cDNA, and real-time PCR analysis was performed using a KAPA SYBR FAST ABI PRISM qPCR kit (Kapa Biosystems). As the primer, oligoDNA pairs of nucleotide sequences were used: SEQ ID NOs: 5 and 6 for Claudin-1, SEQ ID NOs: 13 and 14 for Claudin-3, SEQ ID NOs: 15 and 16 for Claudin-4, SEQ ID NOs: 7 and 8 for ZO-1, SEQ ID NOs: 17 and 18 for ZO-2, SEQ ID NOs: 9 and 10 for Occludin, and SEQ ID NOs: 11 and 12 for MLCK.

[2] = system: DSS-induced enteritis model mouse; assay: Dextran sodium sulfate (DSS)-induced enteritis model mouse: body weight, feces, large intestine length, histology; type: in vivo, BALB/c mice; conditions: 100 nmol orally every day for 10 days, 3.5% DSS for 5 days
Method: as §1

[3] = system: tight junction-related factors (MLCK, occludin) in Caco-2 monolayer cells; assay: Gene expression of tight junction-related factors in Caco-2 monolayer cells (real-time PCR); type: cell-based, human; conditions: IFN-γ and TNF-α, 6 hr, FIG. 4
Method: (§2) To the inner side culture medium of each well of the Caco-2 monolayer cells prepared by the aforementioned method was added a solution of HYA, HYB, KetoA, KetoB or KetoC (each 50 μM concentration, 500 μL), and the mixture was cultured for 24 hr. Then, IFN-γ was added to the outer side culture medium to the final concentration of 50 ng/mL and, after culture for 24 hr, the outer side medium was once removed. TNF-α was added to 50 ng/mL, the mixture was further cultured for 6 hr, and the below-mentioned intestinal tract barrier protection effect was evaluated. Also, a well free of test fatty acid and added with IFN-γ and TNF-α, and a well free of test fatty acid solution, IFN-γ and TNF-α (hereinafter to be also referred to as control) were prepared.
(§3) In the same manner as in the aforementioned Example, HYA was added and, 6 hr later, the Caco-2 monolayer cells were washed 3 times with PBS, and RNA was extracted with TRIzol (registered trade mark) (manufactured by Life Technologies) from the cells. RNA was reverse-transcribed using a high-capacity cDNA reverse transcription kit (Life Technologies) to give cDNA, and real-time PCR analysis was performed using KAPA SYBR FAST ABI PRISM qPCR kit (Kapa Biosystems). […]

Caco-2 monolayer cells = assay: Intestinal tract barrier protection: transepithelial electrical resistance (TER) of Caco-2 monolayer cells stimulated with IFN-γ and TNF-α; type: cell-based, human; conditions: 50 μM test fatty acid 24 hr, then IFN-γ 50 ng/mL 24 hr, TNF-α 50 ng/mL, 0-6 hr; FIG. 2
Method: (§4) Caco-2 cells were placed in a 75 cm^2 tissue culture flask, and cultured up to about 80% confluence at 37° C. The cells were inoculated in a 12-well transwell (Transwell (registered trade mark)) cell culture chamber (permeable membrane; diameter 12 mm, pore size 0.4 μm) at a cell concentration of 2×10^5 cells/cm^2, and cultured at 37° C. for 14 days under 5% CO2 atmosphere to give Caco-2 monolayer cells. Furthermore, to verify whether or not tight junction is sufficiently formed, Caco-2 monolayer cells having transepithelial electrical resistance (TER) of about 900-1,000 Ωcm^2 or more were used for the assay. […]
(§5) To the inner side culture medium of each well of the Caco-2 monolayer cells prepared by the aforementioned method was added a solution of HYA, HYB, KetoA, KetoB or KetoC (each 50 μM concentration, 500 μL), and the mixture was cultured for 24 hr. […] TNF-α was added to 50 ng/mL, the mixture was further cultured for 6 hr, and the below-mentioned intestinal tract barrier protection effect was evaluated. […]
(§6) The intestinal tract barrier protection effect by test fatty acid solution was compared using transepithelial electrical resistance (TER) value (Ω·cm^2) and IL-8 production (pg/mL) as indices. With a resistance value measurement system (Millicell-ERS, Millipore) using an Ag/AgCl electrode, each TER value at 0, 1, 2, 3, 4, 5 and 6 hr after addition of TNF-α was measured. […]

[4] = system: IL-8 production in Caco-2 cells; assay: IL-8 production in Caco-2 monolayer cells stimulated with IFN-γ and TNF-α (ELISA); type: cell-based, human; conditions: 50 μM, IFN-γ and TNF-α stimulation, outer side culture medium 6 hr after TNF-α addition, FIG. 3A
Method: as §4, §5, §6

[5] = system: IL-8 mRNA in Caco-2 cells; assay: IL-8 mRNA expression in Caco-2 monolayer cells (real-time PCR); type: cell-based, human; conditions: IFN-γ and TNF-α, FIG. 3B
Method: as §2, §3

Compound | mRNA expression of MLCK in large intestine tissue ([1]; compared to the DSS mouse) | mRNA expression of occludin in large intestine tissue ([1]; compared to the DSS mouse) | weight loss ([2]; FIG. 5, 6) | stool score ([2]; FIG. 7) | length of large intestine ([2]; FIG. 8) | histochemical evaluation of the large intestine section (H&E staining) ([2]; FIG. 9) | mRNA expression of MLCK [3] | mRNA expression of occludin [3] | TER relative value (Relative TER) (Caco-2 monolayer cells) | IL-8 production [4] | mRNA expression of IL-8 [5] | mRNA expression of all TJ-associated factors (claudin-1, -3, -4, occludin, MLCK, ZO-1, ZO-2) in large intestine tissue ([1]; DSS mouse)
CCCCC/C=C\CC(O)CCCCCCCCC(=O)O (stereo not drawn) [HYA, 10-hydroxy-cis-12-octadecenoic acid] | significant recovery of the mRNA expression of occludin and MLCK | significant recovery of the mRNA expression of occludin and MLCK | effective for the suppression of weight loss | recovery of stool score | protection of large intestine | showed recovery of tissue damage | suppression of an increase in the mRNA expression of MLCK | suppression of an increase in the mRNA expression of MLCK and a decrease in the mRNA expression of occludin | showed suppression of a decrease in the TER relative value | suppression of IL-8 production was observed | suppressed such increase in the expression | –
CCCCCCCCC(O)CCCCCCCCC(=O)O (centres unmarked) [HYB, 10-hydroxyoctadecanoic acid] | – | – | – | – | – | – | – | – | – | suppression of IL-8 production was observed | suppressed such increase in the expression | did not show recovery from abnormal expression of all TJ-associated factors
